Structures can show the parent of a compound that is named as a salt.
How the values were obtained:
[1] = in vivo; conditions: mouse, po, mice, deaths counted for 7 days
Description: In this example, 3-7 male dd mice weighing 20±1 g were used as one group. Each drug was suspended in a 0.3% CMC solution and orally administered. After the administration, number of dead animals was counted for 7 days to determine LD50 value. As the reference drugs, mepirizole and benzydamine hydrochloride were dissolved in water and orally administered. The drugs and the reference drugs were also administered in the same manner as above in Examples 2-5.

[2] = system: male dd mice; assay: Muscle relaxant activity: slant test; assay type: in vivo; conditions: 5 mice per group
Description: (§1) In this example, 5 male dd mice weighing 20±1 g were used as one group. Prior to the experiments, mice were placed on the rod having a diameter of 3 cm and rotating at 5 r.p.m. in the reverse direction of the rotation. […] The drugs were orally administered and the muscle relaxant activity with the passage of time was examined by the following tests.
Slant test: Each mouse was placed on a wire net inclined at an angle of 45° to observe whether it falls or not.
(§2) In each test, the drug was considered to have a muscle relaxant activity when the mouse fell.

[3] = system: male dd mice; assay: Muscle relaxant activity: rotating rod test; assay type: in vivo; conditions: 5 mice per group
Description: as §1
Rotating rod test: The same mouse was placed on the rotating rod to observe whether it falls or not within 2 minutes.
as §2

[4] = system: male dd mice; assay: Muscle relaxant activity: traction test; assay type: in vivo; conditions: 5 mice per group
Excerpt: as §1
Traction test: Forefeet of the same mouse were placed on a wire to observe whether it falls or not.
as §2

[5] = system: male dd mice; assay: Anticonvulsant activity: maximal electroshock convulsion test; assay type: in vivo; conditions: Mus musculus, po, 1 h, 60 min after administration, read-out: Maximal electroshock convulsion test, inhibition ratio; for responders at 25 mg/kg: 25 mg/kg p.o.; for responders at 50 mg/kg: 50 mg/kg p.o.; for responders at 75 mg/kg: 75 mg/kg p.o.; for responders at 100 mg/kg: 100 mg/kg p.o.; for responders at 300 mg/kg: 300 mg/kg p.o.
Excerpt: Anticonvulsant activity was examined according to maximal electroshock convulsion test.
In this experiment, 10 male dd mice weighing 23±1 g were used as one group. Each drug was orally administered to the animals. Sixty minutes after the administration, an electric current (2000 V, 50 mA) was applied to both eyes of the mouse for 0.2 second. Drug activity was judged according to whether tonic extensor seizures were observed or not.

[6] = system: male dd mice; assay: Analgesic activity: acetic acid writhing; assay type: in vivo; conditions: Mus musculus, po, 1 h, acetic acid i.p. after 60 min, read-out: Inhibition ratio (writhes, vs control); for inhibition in vivo at 50 mg/kg: 50 mg/kg p.o.; for inhibition in vivo at 150 mg/kg: 150 mg/kg p.o.
Description: In this experiment, 10 male dd mice weighing 20±1 g were used as one group for examination of analgesic activity. Sixty minutes after oral administration of each drug to each animal, 0.2 ml of a 0.7% acetic acid solution was intraperitoneally administered to the animal. Starting 10 minutes after the administration of acetic acid, the number of writhes occurred in 10 minutes was counted. Average number of writhes and inhibition ratio in comparison with control group were calculated.

[7] = system: male Wistar rats; assay: Anti-inflammatory activity: carrageenin edema method; assay type: in vivo; conditions: Rattus norvegicus, po, 3 hours after carrageenin, read-out: Inhibition ratio (paw swelling, vs control); for inhibition in vivo at 150 mg/kg: 150 mg/kg p.o.
Description: In this experiment, 5 male Wistar rats weighing 140±10 g were used as one group. Sixty minutes after oral administration of each drug to each animal, 0.1 ml of a 1% carrageenin solution as a phlogistic agent was injected into the plantar surface of the right hind paw of the animal to induce inflammation. The volume of the paw was measured before and 3 hours after the injection of the phlogistic agent. Swelling ratio and inhibition ratio in comparison with control group were calculated.

## Cc1c(C(=O)N(C)C)oc2c(Cl)cccc12 [Compound (C), 7-chloro-N,N,3-trimethylbenzo[b]furan-2-carboxamide]
[1]
  LD50 at 168 h: > 1000 mg/kg
[2]; 50 mg/kg p.o., 1 hr
  Number of dropped mice, slant test: 5 mice
[2]; 50 mg/kg p.o., 2 hr
  Number of dropped mice, slant test: 4 mice
[2]; 50 mg/kg p.o., 3 hr
  Number of dropped mice, slant test: 1 mice
[2]; 100 mg/kg p.o., 1 hr
  Number of dropped mice, slant test: 5 mice
[2]; 100 mg/kg p.o., 2 hr
  Number of dropped mice, slant test: 5 mice
[2]; 100 mg/kg p.o., 3 hr
  Number of dropped mice, slant test: 5 mice
[3]; 25 mg/kg p.o., 1 hr
  Number of dropped mice, rotating rod test: 3 mice
[3]; 25 mg/kg p.o., 2 hr
  Number of dropped mice, rotating rod test: 1 mice
[3]; 25 mg/kg p.o., 3 hr
  Number of dropped mice, rotating rod test: 0 mice
[3]; 50 mg/kg p.o., 1 hr
  Number of dropped mice, rotating rod test: 5 mice
[3]; 50 mg/kg p.o., 2 hr
  Number of dropped mice, rotating rod test: 5 mice
[3]; 50 mg/kg p.o., 3 hr
  Number of dropped mice, rotating rod test: 2 mice
[3]; 100 mg/kg p.o., 1 hr
  Number of dropped mice, rotating rod test: 5 mice
[3]; 100 mg/kg p.o., 2 hr
  Number of dropped mice, rotating rod test: 5 mice
[3]; 100 mg/kg p.o., 3 hr
  Number of dropped mice, rotating rod test: 5 mice
[4]; 25 mg/kg p.o., 1 hr
  Number of dropped mice, traction test: 0 mice
[4]; 25 mg/kg p.o., 2 hr
  Number of dropped mice, traction test: 0 mice
[4]; 25 mg/kg p.o., 3 hr
  Number of dropped mice, traction test: 0 mice
[4]; 50 mg/kg p.o., 1 hr
  Number of dropped mice, traction test: 5 mice
[4]; 50 mg/kg p.o., 2 hr
  Number of dropped mice, traction test: 4 mice
[4]; 50 mg/kg p.o., 3 hr
  Number of dropped mice, traction test: 1 mice
[4]; 100 mg/kg p.o., 1 hr
  Number of dropped mice, traction test: 5 mice
[4]; 100 mg/kg p.o., 2 hr
  Number of dropped mice, traction test: 5 mice
[4]; 100 mg/kg p.o., 3 hr
  Number of dropped mice, traction test: 5 mice
[5]
  responders at 25 mg/kg: 40%
  responders at 50 mg/kg: 66.7%
  responders at 75 mg/kg: 80%
  responders at 100 mg/kg: 100%
[6]
  inhibition in vivo at 50 mg/kg: 85.3%
  inhibition in vivo at 150 mg/kg: 100%
[7]
  inhibition in vivo at 150 mg/kg: 35.1%
[7]; 300 mg/kg p.o.
  inhibition in vivo at 300 mg/kg: 57.8%

## CN(C)CCCOc1nn(Cc2ccccc2)c2ccccc12 [Benzydamine hydrochloride, benzydamine hydrochloride, reference compound]
[1]
  LD50 at 168 h: 500 to 1000 mg/kg
[2]; 300 mg/kg p.o., 1 hr
  Number of dropped mice, slant test: 4 mice
[2]; 300 mg/kg p.o., 2 hr
  Number of dropped mice, slant test: 2 mice
[2]; 300 mg/kg p.o., 3 hr
  Number of dropped mice, slant test: 0 mice
[3]; 300 mg/kg p.o., 1 hr
  Number of dropped mice, rotating rod test: 5 mice
[3]; 300 mg/kg p.o., 2 hr
  Number of dropped mice, rotating rod test: 3 mice
[3]; 300 mg/kg p.o., 3 hr
  Number of dropped mice, rotating rod test: 2 mice
[4]; 300 mg/kg p.o., 1 hr
  Number of dropped mice, traction test: 5 mice
[4]; 300 mg/kg p.o., 2 hr
  Number of dropped mice, traction test: 1 mice
[4]; 300 mg/kg p.o., 3 hr
  Number of dropped mice, traction test: 0 mice
[5]
  responders at 50 mg/kg: 35%
  responders at 75 mg/kg: 90%
  responders at 100 mg/kg: 100%
  responders at 300 mg/kg: 100%
[6]
  inhibition in vivo at 50 mg/kg: 0%
[6]; 200 mg/kg p.o.
  inhibition in vivo at 200 mg/kg: 83.7%
[7]; 100 mg/kg p.o.
  inhibition in vivo at 100 mg/kg: 14.4%
[7]; 200 mg/kg p.o.
  inhibition in vivo at 200 mg/kg: 23.5%

## COc1ccc2oc(C(=O)N(C)C)c(C)c2c1 [Compound (F), 5-Methoxy-N,N,3-trimethyl-benzo[b]furan-2-carboxamide]
[1]
  LD50 at 168 h: > 1000 mg/kg
[2]; 300 mg/kg p.o., 1 hr
  Number of dropped mice, slant test: 4 mice
[2]; 300 mg/kg p.o., 2 hr
  Number of dropped mice, slant test: 2 mice
[2]; 300 mg/kg p.o., 3 hr
  Number of dropped mice, slant test: 1 mice
[3]; 150 mg/kg p.o., 1 hr
  Number of dropped mice, rotating rod test: 1 mice
[3]; 150 mg/kg p.o., 2 hr
  Number of dropped mice, rotating rod test: 0 mice
[3]; 150 mg/kg p.o., 3 hr
  Number of dropped mice, rotating rod test: 0 mice
[3]; 300 mg/kg p.o., 1 hr
  Number of dropped mice, rotating rod test: 5 mice
[3]; 300 mg/kg p.o., 2 hr
  Number of dropped mice, rotating rod test: 5 mice
[3]; 300 mg/kg p.o., 3 hr
  Number of dropped mice, rotating rod test: 3 mice
[4]; 150 mg/kg p.o., 1 hr
  Number of dropped mice, traction test: 1 mice
[4]; 150 mg/kg p.o., 2 hr
  Number of dropped mice, traction test: 0 mice
[4]; 150 mg/kg p.o., 3 hr
  Number of dropped mice, traction test: 0 mice
[4]; 300 mg/kg p.o., 1 hr
  Number of dropped mice, traction test: 5 mice
[4]; 300 mg/kg p.o., 2 hr
  Number of dropped mice, traction test: 3 mice
[4]; 300 mg/kg p.o., 3 hr
  Number of dropped mice, traction test: 1 mice
[5]; 150 mg/kg p.o.
  responders at 150 mg/kg: 30%
[5]
  responders at 300 mg/kg: 100%
[6]
  inhibition in vivo at 150 mg/kg: 11%
[7]
  inhibition in vivo at 150 mg/kg: 0%

## Cc1c(C(=O)N(C)C)oc2cccc(Cl)c12 [Compound (A), 4-Chloro-N,N,3-trimethyl-benzo[b]furan-2-carboxamide]
[1]
  LD50 at 168 h: > 1000 mg/kg
[2]; 300 mg/kg p.o., 1 hr
  Number of dropped mice, slant test: 4 mice
[2]; 300 mg/kg p.o., 2 hr
  Number of dropped mice, slant test: 3 mice
[2]; 300 mg/kg p.o., 3 hr
  Number of dropped mice, slant test: 3 mice
[3]; 75 mg/kg p.o., 1 hr
  Number of dropped mice, rotating rod test: 3 mice
[3]; 75 mg/kg p.o., 2 hr
  Number of dropped mice, rotating rod test: 2 mice
[3]; 75 mg/kg p.o., 3 hr
  Number of dropped mice, rotating rod test: 1 mice
[3]; 150 mg/kg p.o., 1 hr
  Number of dropped mice, rotating rod test: 5 mice
[3]; 150 mg/kg p.o., 2 hr
  Number of dropped mice, rotating rod test: 5 mice
[3]; 150 mg/kg p.o., 3 hr
  Number of dropped mice, rotating rod test: 2 mice
[4]; 75 mg/kg p.o., 1 hr
  Number of dropped mice, traction test: 3 mice
[4]; 75 mg/kg p.o., 2 hr
  Number of dropped mice, traction test: 0 mice
[4]; 75 mg/kg p.o., 3 hr
  Number of dropped mice, traction test: 0 mice
[4]; 150 mg/kg p.o., 1 hr
  Number of dropped mice, traction test: 5 mice
[4]; 150 mg/kg p.o., 2 hr
  Number of dropped mice, traction test: 3 mice
[4]; 150 mg/kg p.o., 3 hr
  Number of dropped mice, traction test: 1 mice
[5]
  responders at 25 mg/kg: 10%
  responders at 50 mg/kg: 30%
  responders at 75 mg/kg: 80%
[6]
  inhibition in vivo at 50 mg/kg: 60.6%
  inhibition in vivo at 150 mg/kg: 100%
[7]
  inhibition in vivo at 150 mg/kg: 33.4%

— patent US4353923A, “Pharmaceutical composition containing a benzofurancarboxamide derivative as the active ingredient” (Kyowa Hakko Kogyo Co., Ltd., priority 1980, dated 1982)
